The values below are quoted from earlier work in patent US20240173233A1, “COSMETIC SACHET FOR REDUCING AGE-RELATED SYMPTOMS IN HUMAN SKIN” (Bloo Pharmapeutica Inc., priority 2022, published 2024).

Data set [1] deals with skin fibroblast. The conditions noted are these: in comparison with other widely used general and mitochondrial-targeting antioxidants.
The test system of data set [2] is 3D skin model.
Data set [3] concerns cultured human skin fibroblasts derived from healthy donors and from patients with progeria.
For data set [4], the system named is elastin and collagen 2A1. Particulars: MB treatment of skin.

Turning to `CN(C)c1ccc2nc3ccc(=[N+](C)C)cc-3sc2c1.[Cl-]` [methylene blue, [7-(dimethylamino)phenothiazine-3-ylidene]-dimethylazanium chloride], in data set [1], the delaying cellular senescence result was “more effective” and the “stimulating skin fibroblast proliferation” value was “more effective”. Besides, in data set [2], the dermis thickness result was “increased skin hydration and dermis thickness”; the skin hydration entry is “increased skin hydration”; the skin viability entry is given as “improved skin viability”; the wound healing result is “promoted wound healing”. For the same molecule, the “reactive oxygen species (ROS) scavenging efficacy” value in data set [3] is “potent reactive oxygen species (ROS) scavenging efficacy”. In data set [4], the “expression of extracellular matrix proteins” value is “upregulation of elastin and collagen 2A1”.
